Ends that are not written are not given here.
Legend:
[1] = biological target: T1, FAP protein (Homo sapiens, UniProt Q12884); test: Biacore (SPR) test of compound affinity to FAP protein; type: binding; details: for pKD (FAP): Biacore 8K, SA chip, 15 °C, single cycle, 1:1 binding model, pKD = -LogKD
T1 construct: purchased Sinobiological
T1 sequence (Q12884 1-760): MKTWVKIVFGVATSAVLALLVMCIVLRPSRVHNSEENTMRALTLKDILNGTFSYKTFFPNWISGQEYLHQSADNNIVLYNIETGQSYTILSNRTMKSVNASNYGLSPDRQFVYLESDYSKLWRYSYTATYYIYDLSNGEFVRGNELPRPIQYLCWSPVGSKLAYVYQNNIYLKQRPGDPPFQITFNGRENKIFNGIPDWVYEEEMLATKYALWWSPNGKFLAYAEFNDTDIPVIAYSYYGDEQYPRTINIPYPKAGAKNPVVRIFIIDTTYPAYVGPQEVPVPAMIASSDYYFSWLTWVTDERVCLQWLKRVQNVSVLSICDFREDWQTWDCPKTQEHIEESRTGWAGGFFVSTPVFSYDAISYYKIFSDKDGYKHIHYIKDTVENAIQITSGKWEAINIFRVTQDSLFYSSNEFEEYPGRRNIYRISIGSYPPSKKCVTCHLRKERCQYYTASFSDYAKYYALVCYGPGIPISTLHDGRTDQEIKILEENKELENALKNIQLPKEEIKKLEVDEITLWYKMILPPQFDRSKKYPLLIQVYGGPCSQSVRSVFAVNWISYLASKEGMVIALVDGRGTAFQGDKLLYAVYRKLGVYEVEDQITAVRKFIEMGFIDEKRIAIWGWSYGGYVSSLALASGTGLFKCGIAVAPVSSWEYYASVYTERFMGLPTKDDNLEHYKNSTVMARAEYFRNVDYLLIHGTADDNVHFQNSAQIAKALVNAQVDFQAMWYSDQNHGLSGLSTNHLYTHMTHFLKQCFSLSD
Protocol: The Biacore 8K (Cytiva) instrument was used to detect ligand binding of the FAP protein (Sinobiological). FAP protein was captured on the SA chip. Prior to ligand immobilization (flow paths 1 and 2, flow rate of 10 µL/min), FAP protein (10 µg/mL, flow rate of 5 µL/min, injection time of 600 s) was immobilized on flow path 2 using running buffer. The sensor surface was conditioned by injecting 1M NaCl three consecutive times in 50 mM NaOH. After each ligand injection, additional cleaning was performed using isopropanol in 1M NaCl and 50 mM NaOH (flow path 1 and 2, flow rate of 10 µL/min, injection time of 60 s).
The tested compound was dissolved in 100% dimethyl sulfoxide and diluted to 10 mM, then diluted in the assay buffer (PBS, pH 7.4, 1 mM TCEP ([…]), 0.05% P20, 2% dimethyl sulfoxide) to an appropriate maximum concentration. The analyte was run under the following conditions: analysis temperature of 15 °C, analysis step = all set to LMW kinetics; cycle type = single cycle (contact time of 90 s, dissociation time of 1800 s, flow rate of 30 µL/min, flow channels 1 and 2); channel detection = 2-1. Data was evaluated using the Biacore Insight Evaluation Software, and the data were fitted to a 1:1 binding model.
The Biacore results are shown in Table 2 below: pKD = -LogKD, where KD is the binding affinity of the compound to the FAP protein as measured by Biacore.

[2] = biological target: T2, fibroblast activation protein (FAP) (Homo sapiens, UniProt Q12884); test: Protease inhibition selectivity assay (fluorogenic substrate Z-Gly-Pro-AMC), FAP; type: biochemical; details: recombinant human FAP 1.2 nM, pH 7.5
T2 sequence (Q12884 1-760): T1 sequence (Q12884 1-760)
Protocol: (§1) The specificity of the synthesized compounds for recombinant human dipeptidyl peptidase IV (DPPIV), fibroblast activation protein (FAP), or prolyl oligopeptidase (PREP) was expressed by their half-maximal inhibitory concentration (IC50) against the proteases. […] It was incubated at room temperature for 10 minutes, with the plate being shaken for the first two minutes. • 6) 10 µL of the 20x substrate prepared in step 3 was added to each well and incubated at room temperature for 15 minutes, with the plate being shaken for the first two minutes. • 7) Fluorescence was read at λex:380 and λem:460.

[3] = biological target: dipeptidyl peptidase IV (DPPIV) (Homo sapiens, UniProt P27487); test: Protease inhibition selectivity assay (fluorogenic substrate Gly-Pro-AMC), DPPIV; type: biochemical; details: recombinant human DPPIV 0.1 nM, pH 7.5; read-out: pIC50 (DPPIV) (converted)
Protocol: as §1

[4] = biological target: T3, prolyl oligopeptidase (PREP) (Homo sapiens, UniProt P48147); test: Protease inhibition selectivity assay (fluorogenic substrate Z-Gly-Pro-AMC), PREP; type: biochemical; details: recombinant human PREP 0.6 nM, pH 8.0
T3 sequence (P48147 1-710): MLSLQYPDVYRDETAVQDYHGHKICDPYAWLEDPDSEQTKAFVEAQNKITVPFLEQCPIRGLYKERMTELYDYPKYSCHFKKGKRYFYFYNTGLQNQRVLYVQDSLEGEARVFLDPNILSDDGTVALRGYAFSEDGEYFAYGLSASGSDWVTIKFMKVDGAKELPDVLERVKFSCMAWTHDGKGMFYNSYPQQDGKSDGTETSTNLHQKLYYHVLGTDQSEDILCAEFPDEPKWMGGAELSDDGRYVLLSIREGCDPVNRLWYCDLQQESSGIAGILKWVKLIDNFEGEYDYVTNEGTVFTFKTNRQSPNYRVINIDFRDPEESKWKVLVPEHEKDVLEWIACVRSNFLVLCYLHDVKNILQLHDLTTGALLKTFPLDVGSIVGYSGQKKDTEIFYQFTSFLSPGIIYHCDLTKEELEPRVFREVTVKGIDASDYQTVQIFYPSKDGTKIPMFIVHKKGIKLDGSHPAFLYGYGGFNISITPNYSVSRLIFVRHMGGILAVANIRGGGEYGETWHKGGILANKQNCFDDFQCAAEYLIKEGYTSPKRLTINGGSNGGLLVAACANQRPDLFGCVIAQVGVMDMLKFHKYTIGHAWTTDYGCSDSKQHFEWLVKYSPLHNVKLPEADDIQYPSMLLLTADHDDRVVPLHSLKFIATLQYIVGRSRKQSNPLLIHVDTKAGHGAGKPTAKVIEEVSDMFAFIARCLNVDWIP
Protocol: as §1

dipeptidyl peptidase IV (DPPIV), sequence (P27487 whole entry): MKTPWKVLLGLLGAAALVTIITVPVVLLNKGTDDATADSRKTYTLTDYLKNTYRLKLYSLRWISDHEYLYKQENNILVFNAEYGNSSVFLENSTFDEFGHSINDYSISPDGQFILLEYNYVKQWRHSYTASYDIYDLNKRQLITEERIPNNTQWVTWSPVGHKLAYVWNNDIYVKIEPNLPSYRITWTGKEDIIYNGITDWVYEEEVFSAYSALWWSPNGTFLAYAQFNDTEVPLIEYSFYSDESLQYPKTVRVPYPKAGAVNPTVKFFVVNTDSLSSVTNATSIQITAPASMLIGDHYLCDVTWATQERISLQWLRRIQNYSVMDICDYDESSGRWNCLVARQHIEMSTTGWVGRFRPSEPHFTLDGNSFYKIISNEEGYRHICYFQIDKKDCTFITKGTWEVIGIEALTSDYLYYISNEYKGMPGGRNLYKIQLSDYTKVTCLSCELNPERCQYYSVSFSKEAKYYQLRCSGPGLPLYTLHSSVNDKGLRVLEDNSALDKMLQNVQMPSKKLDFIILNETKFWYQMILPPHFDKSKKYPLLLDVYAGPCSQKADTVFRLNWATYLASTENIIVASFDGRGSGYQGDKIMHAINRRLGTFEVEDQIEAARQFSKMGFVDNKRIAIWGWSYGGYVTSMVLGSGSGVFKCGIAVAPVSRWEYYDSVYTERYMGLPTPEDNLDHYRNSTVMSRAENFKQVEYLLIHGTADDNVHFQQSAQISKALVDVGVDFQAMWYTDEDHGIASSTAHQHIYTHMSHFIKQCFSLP

pKD (FAP) [1]	Kd ([1]; read-out: pKD (FAP) (converted))	IC50 [2]	IC50 [3]	IC50 [4]	Molecule
B (B: 7<pKD<8)					Hex[Cys(3MeBn)-hhy44(NH)-CO-Pro-Thr-Gln-Phe-Cys]-Lys-(DOTA)-OH (PTQFC-{K(DOTA)-OH}; not fully specified (N-terminus, bridges); also: cyclised within brackets, ring closure not given here) [JHDC07]
	10 to 100 nM	< 10 nM	> 1000 nM	> 1000 nM	CCCCCC(=O)N[C@H]1CSCc2cc(CSCCNC(=O)CN3CCN(CC(=O)O)CCN(CC(=O)O)CCN(CC(=O)O)CC3)cc(c2)CSC[C@@H](C(=O)O)NC(=O)[C@H](Cc2ccccc2)NC(=O)[C@H](CCC(N)=O)NC(=O)[C@H]([C@@H](C)O)NC(=O)[C@@H]2CCCN2C(=O)[C@@H]2CCCN2C1=O [FAP-2286]
B (B: 7<pKD<8)					Oct[Cys(tMeBn-DOTA-AET)-hhy39-Pro-Thr-Gln-hhy34-Cys]-Glu-(Arg-Gly-Asp(NH2))-OH [JHDC21]
